From patent publication US12329823B2 (The Scripps Research Institute, priority 2021, dated 2025)
Where two headings read alike, the source gives them in different places.

Key:
[1] = Acute oral glucose tolerance test (OGTT) in wild-type mice, 2 h and 96 h post injection; format: in vivo, mouse; settings: 96 h after administration; 10 nmol/kg s.c.
human GIPR [2] = target: T1, human GIPR (Homo sapiens, UniProt P48546); assay: In vitro receptor activation reporter assay (CRE-Luc, HEK293-GIPR-CRE cells; receptor-mediated cAMP synthesis); format: cell-based
T1 construct: expressed in transfected cells; host or cells: HEK293 (CRE-HEK293, HEK293-GIPR-CRE)
T1 sequence (P48546 22-466): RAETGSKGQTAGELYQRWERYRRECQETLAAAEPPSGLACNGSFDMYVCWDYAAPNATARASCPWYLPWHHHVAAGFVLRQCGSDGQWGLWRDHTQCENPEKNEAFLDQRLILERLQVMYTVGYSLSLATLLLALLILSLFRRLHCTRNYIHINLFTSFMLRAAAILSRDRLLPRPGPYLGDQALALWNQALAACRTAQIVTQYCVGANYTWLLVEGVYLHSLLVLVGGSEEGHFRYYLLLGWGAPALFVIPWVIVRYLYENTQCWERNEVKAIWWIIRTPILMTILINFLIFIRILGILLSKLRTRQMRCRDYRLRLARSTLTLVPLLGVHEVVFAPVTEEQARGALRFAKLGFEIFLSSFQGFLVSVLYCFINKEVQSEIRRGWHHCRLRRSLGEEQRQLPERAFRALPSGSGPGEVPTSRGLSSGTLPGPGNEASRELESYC

[3] = Pharmacokinetics in CD-1 mouse, I.V. or S.C. 1 mg/kg, plasma concentration by LC-MS;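 further: peptide levels in plasma quantified by LC-MS across multiple sampling times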
Experimental: The peptide plasma concentration at various time points was determined using LC-MS.

human GLP-1R [4] = target: T2, human GLP-1R (Homo sapiens, UniProt P43220); assay: In vitro receptor activation reporter assay (CRE-Luc, HEK293-GLP-1R-CRE cells; receptor-mediated cAMP synthesis); format: cell-based; design: expressed in transfected cells; host or cells: HEK293 (CRE-HEK293, HEK293-GLP-1R-CRE)
T2 sequence (P43220 24-463): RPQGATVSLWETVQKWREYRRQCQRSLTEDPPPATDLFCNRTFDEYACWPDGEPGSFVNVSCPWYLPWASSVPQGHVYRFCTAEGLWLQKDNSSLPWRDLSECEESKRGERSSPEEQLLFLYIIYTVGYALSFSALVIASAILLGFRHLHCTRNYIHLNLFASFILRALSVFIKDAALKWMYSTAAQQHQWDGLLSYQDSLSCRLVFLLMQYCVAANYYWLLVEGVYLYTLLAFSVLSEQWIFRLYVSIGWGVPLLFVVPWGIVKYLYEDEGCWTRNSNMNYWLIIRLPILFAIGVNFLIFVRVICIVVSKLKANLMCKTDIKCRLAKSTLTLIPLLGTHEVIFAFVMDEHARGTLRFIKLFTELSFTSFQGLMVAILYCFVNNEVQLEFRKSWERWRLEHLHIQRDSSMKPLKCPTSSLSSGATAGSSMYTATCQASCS
Experimental: HEK293 cells were infected with lentivirus encoding firefly luciferase gene under the control of cAMP responsive element (CRE) promoter (Qiagen, The Netherlands) and then were selected using 1 μg mL^−1 puromycin (Life Technologies, Carlsbad) for 1 week. The surviving cells (referred to as CRE-HEK293) were expanded and then transfected with a G418 selective mammalian expression plasmid encoding human GLP-1R or GIPR. In brief, GLP-1R or GIPR plasmid was transfected into CRE-HEK293 cells using Lipofectamine 2000 and selected with 400 μg mL^−1 Geneticin (Life Technologies, Carlsbad, CA). Single colony stable cell line overexpressing CRE-luciferase and GLP-1R or GIPR (HEK293-GLP-1R-CRE or HEK293-GIPR-CRE) was then established for in vitro activity assay.
HEK293 cells were infected with lentivirus encoding firefly luciferase gene under the control of cAMP responsive element (CRE) promoter (Qiagen, The Netherlands) and then were selected using 1 μg/mL puromycin (Life Technologies, Carlsbad) for 1 week. The surviving cells (referred to as CRE-HEK293) were expanded and then transfected with a G418 selective mammalian expression plasmid encoding human GLP-1R. In brief, GLP-1R plasmid was transfected into CRE-HEK293 cells using Lipofectamine 2000 and selected with 400 μg/mL Geneticin (Life Technologies, Carlsbad, CA). Single colony stable cell line overexpressing CRE-luciferase and GLP1R was then established for in vitro activity assay.

cynomolgous monkey GIPR = assay: In vitro potency, cynomolgous monkey GIPR activation (receptor-mediated cAMP synthesis); format: cell-based; settings: Table 12; read-out: In Vitro Potency GIPR EC50, Cyno
[5] = In vivo oral glucose tolerance test (OGTT) 12 h after a single S.C. dose; design: species or system mouse; settings: 10 nmol/kg S.C.; 12 h before glucose
Experimental: Mice were fasted overnight prior to the oral glucose tolerance test (OGTT), and then dosed with peptide. After 12 h, 1 g of glucose solution per kg body weight was administered orally, and mouse tail blood glucose levels were measured before (0 min) and after glucose challenge for 90 minutes (with measurements at 15, 30, 60 and 90 minutes) (FIG. 16). The data were compared using the unpaired Student's t test. Where appropriate, data were compared using repeated measures or one-way analysis of variance, followed by the Student-Newman-Keuls post hoc test. Calculations for […] (mg/dL*min) were also analyzed and graphed in FIG. 16. […]. […].

human GIPR [6] = target: T1, human GIPR; settings: literature, in words; cited from earlier work
human GLP-1R [7] = target: T2, human GLP-1R; settings: literature, in words; cited from earlier work
dog GIPR = target: T3, dog GIPR (Canis lupus familiaris, UniProt A0A8I3MPG1); assay: In vitro potency, dog GIPR activation (receptor-mediated cAMP synthesis); format: cell-based
T3 sequence (A0A8I3MPG1 24-449): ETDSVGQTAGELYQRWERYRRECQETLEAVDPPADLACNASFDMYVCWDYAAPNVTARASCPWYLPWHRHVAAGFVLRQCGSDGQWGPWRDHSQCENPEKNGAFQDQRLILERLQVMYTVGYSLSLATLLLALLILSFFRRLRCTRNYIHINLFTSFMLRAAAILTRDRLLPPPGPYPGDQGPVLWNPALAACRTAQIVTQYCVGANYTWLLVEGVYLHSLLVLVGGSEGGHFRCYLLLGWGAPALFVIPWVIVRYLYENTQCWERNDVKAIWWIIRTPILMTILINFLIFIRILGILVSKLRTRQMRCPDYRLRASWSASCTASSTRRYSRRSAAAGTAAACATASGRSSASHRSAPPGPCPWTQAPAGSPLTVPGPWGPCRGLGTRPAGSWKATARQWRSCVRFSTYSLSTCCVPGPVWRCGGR
Experimental: GLP-1R-CRE or HEK293-GIPR-CRE cells were seeded in 384-well plates at a density of 5000 cells per well and cultured for 18 h in DMEM with 10% FBS at 37° C. and 5% CO2. Cells were treated with peptides in a dose dependent manner for 24 h, and receptor activation was reported by luminescence intensities, using One-Glo (Promega, WI) luciferase reagent following manufacturer's instruction. The EC50 of each peptide was determined using GraphPad Prism 6 software (GraphPad, San Diego, CA). Results are depicted in FIGS. 6A-6B, FIGS. 7A-7B, FIGS. 8A-8B, FIGS. 9A-9B, and Tables 7-12. Measurements of peptide conjugate potency were expressed as half maximal effective concentration (EC50) values.

## CC[C@H](C)[C@H](NC(=O)[C@H](CO)NC(=O)[C@H](Cc1ccc(O)cc1)NC(=O)[C@H](CC(=O)O)NC(=O)[C@H](CO)NC(=O)[C@@H](NC(=O)[C@H](Cc1ccccc1)NC(=O)[C@@H](NC(=O)CNC(=O)[C@H](CCC(=O)O)NC(=O)C(C)(C)NC(=O)[C@@H](N)Cc1ccc(O)cc1)[C@@H](C)O)[C@@H](C)O)C(=O)N[C@@H](Cc1ccc(O)cc1)C(=O)N[C@H]1CCCCNC(=O)CN(C(=O)CCNC(=O)CCOCCOCCNC(=O)CCOCCOCCNC(=O)CC[C@H](NC(=O)CCCCCCCCCCCCCCCCC(=O)O)C(=O)O)CC(=O)NCCCC[C@@H](C(=O)N[C@@H](Cc2ccccc2)C(=O)N[C@H](C(=O)N[C@@H](CC(N)=O)C(=O)N[C@@H](Cc2c[nH]c3ccccc23)C(=O)N[C@@H](CC(C)C)C(=O)N[C@@H](CC(C)C)C(=O)N[C@@H](C)C(=O)NCC(=O)NCC(=O)N2CCC[C@H]2C(=O)N[C@@H](CO)C(=O)N[C@@H](CO)C(=O)NCC(=O)N[C@@H](C)C(=O)N2CCC[C@H]2C(=O)N2CCC[C@H]2C(=O)N2CCC[C@H]2C(=O)N[C@@H](CO)C(N)=O)C(C)C)NC(=O)C(C)(C)NC(=O)[C@H](C)NC(=O)[C@H](C)NC(=O)[C@H](CCC(N)=O)NC(=O)[C@H](CCCCN)NC(=O)[C@H](CC(=O)O)NC1=O [mCLZ715, YAibEGT-FTSDY-SIYXD-KQAAAib-XFVNW-LLAGG-PSSGA-PPPS-NH2 (where each X is K) (SEQ ID NO: 40)]
[1]
  fasted glucose levels: significantly reduce fasted glucose levels
  glucose handling (OGTT) versus vehicle: more significant improvements in handling glucose

## CC[C@H](C)[C@H](NC(=O)[C@H](CC(C)C)NC(=O)[C@H](Cc1c[nH]c2ccccc12)NC(=O)[C@H](CC(N)=O)NC(=O)[C@@H](NC(=O)[C@H](Cc1ccccc1)NC(=O)[C@@H]1CSCC(=O)NCCN(C(=O)CCC(=O)NCCOCCOCCC(=O)NCCOCCOCCC(=O)NCCCC[C@H](NC(=O)CCCCCCCCCCCCCCCCCCC(=O)O)C(=O)O)CCNC(=O)CSC[C@H](NC(=O)[C@H](Cc2ccc(O)cc2)NC(=O)[C@@H](NC(=O)[C@H](CO)NC(=O)[C@H](Cc2ccc(O)cc2)NC(=O)[C@H](CC(=O)O)NC(=O)[C@H](CO)NC(=O)[C@@H](NC(=O)[C@H](Cc2ccccc2)NC(=O)[C@@H](NC(=O)CNC(=O)[C@H](CCC(=O)O)NC(=O)C(C)(C)NC(=O)[C@@H](N)Cc2ccc(O)cc2)[C@@H](C)O)[C@@H](C)O)[C@@H](C)CC)C(=O)N[C@@H](CC(=O)O)C(=O)N[C@@H](CCCCN)C(=O)N[C@@H](CCC(N)=O)C(=O)N[C@@H](C)C(=O)N[C@@H](C)C(=O)NC(C)(C)C(=O)N1)C(C)C)C(=O)N[C@@H](C)C(=O)NCC(=O)NCC(=O)N1CCC[C@H]1C(=O)N[C@@H](CO)C(=O)N[C@@H](CO)C(=O)NCC(=O)N[C@@H](C)C(=O)N1CCC[C@H]1C(=O)N1CCC[C@H]1C(=O)N1CCC[C@H]1C(=O)N[C@@H](CO)C(N)=O [mCMV266, YAibEGT-FTSDY-SIYXD-KQAAAib-XFVNW-LIAGG-PSSGA-PPPS-NH2 (where each X is C) (SEQ ID NO: 52)]
Human GIPR [2]; EC50 GIPR 02/19, unnumbered table, run 02/19
  EC50: 80 pM
Human GIPR [2]; EC50 GIPR 03/25, unnumbered table, run 03/25
  EC50: 60 pM
Human GIPR [2]; EC50 GIPR 03/26, unnumbered table, run 03/26
  EC50: 60 pM
Human GIPR [2]; EC50 GIPR, Table 8
  EC50: 70 pM
Human GIPR [2]; unnumbered table, average of runs, read-out: EC50 GIPR average
  EC50: 70 pM
[3]; CD-1, mouse, in vivo, sc, 1 mg/kg
  bioavailability: 63%
[3]; Table 14, SC 1 mg/kg
  Cl: 4.02 mL/h/kg
  Vd: 0.063 L/kg
[3]; mouse, in vivo, iv, 1 mg/kg
  AUC(0-inf): 397 µg·h/mL
  Cmax: 30400 ng/mL
  MRT last: 18.6 h
  Tmax: 0.5 h
  Vd: 0.043 L/kg
  clearance: 2.58 mL/h/kg
  half-life: 11.5 h
[3]; mouse, in vivo, iv, 1 mg/kg, AUC0-24, Table 14, IV 1 mg/kg
  AUC(0-t): 269 µg·h/mL
[3]; mouse, in vivo, iv, 1 mg/kg, AUCLAST, Table 14, IV 1 mg/kg
  AUC(0-t): 390 µg·h/mL
[3]; mouse, in vivo, sc, 1 mg/kg
  AUC(0-inf): 252 µg·h/mL
  Cmax: 6610 ng/mL
  MRT last: 24.3 h
  Tmax: 12.7 h
  half-life: 10.7 h
[3]; mouse, in vivo, sc, 1 mg/kg, AUC0-24, Table 14, SC 1 mg/kg
  AUC(0-t): 135 µg·h/mL
[3]; mouse, in vivo, sc, 1 mg/kg, AUCLAST, Table 14, SC 1 mg/kg
  AUC(0-t): 247 µg·h/mL
Human GLP-1R [4]; EC50 GLP1R 02/19, unnumbered table, run 02/19
  EC50: 30 pM
Human GLP-1R [4]; EC50 GLP1R 3/25, unnumbered table, run 3/25
  EC50: 50 pM
Human GLP-1R [4]; EC50 GLP1R 03/26, unnumbered table, run 03/26
  EC50: 60 pM
Human GLP-1R [4]; EC50 GLP1R, Table 8
  EC50: 50 pM
Human GLP-1R [4]; unnumbered table, average of runs, read-out: EC50 GLP1R average
  EC50: 50 pM

## Tirzepatide
Cynomolgous monkey GIPR
  EC50: 80 pM
[5]
  effects on glucose tolerance: indistinguishable effects on glucose tolerance
Human GIPR [6]
  binding affinity to human GIPR versus hGIP: comparable affinity than that of hGIP
Human GLP-1R [7]
  GLP-1 receptor binding versus native hGLP-1: approximately five times lower GLP-1 receptor binding than native hGLP-1

## CC[C@H](C)[C@H](NC(=O)[C@H](CO)NC(=O)[C@H](Cc1ccc(O)cc1)NC(=O)[C@H](CC(=O)O)NC(=O)[C@H](CO)NC(=O)[C@@H](NC(=O)[C@H](Cc1ccccc1)NC(=O)[C@@H](NC(=O)CNC(=O)[C@H](CCC(=O)O)NC(=O)[C@H](C)NC(=O)[C@@H](N)Cc1ccc(O)cc1)[C@@H](C)O)[C@@H](C)CC)C(=O)N[C@@H](C)C(=O)N[C@@H](CCSC)C(=O)N[C@@H](CC(=O)O)C(=O)N[C@@H](CCCCN)C(=O)N[C@H](C(=O)N[C@@H](Cc1c[nH]cn1)C(=O)N[C@@H](CCC(N)=O)C(=O)N[C@@H](CCC(N)=O)C(=O)N[C@@H](CC(=O)O)C(=O)N[C@@H](Cc1ccccc1)C(=O)N[C@H](C(=O)N[C@@H](CC(N)=O)C(=O)N[C@@H](Cc1c[nH]c2ccccc12)C(=O)N[C@@H](CC(C)C)C(=O)N[C@@H](CC(C)C)C(=O)N[C@@H](C)C(=O)N[C@@H](CCC(N)=O)C(=O)N[C@@H](CCCCN)C(=O)NCC(=O)N[C@@H](CCCCN)C(=O)N[C@@H](CCCCN)C(=O)N[C@@H](CC(N)=O)C(=O)N[C@@H](CC(=O)O)C(=O)N[C@@H](Cc1c[nH]c2ccccc12)C(=O)N[C@@H](CCCCN)C(=O)N[C@@H](Cc1c[nH]cn1)C(=O)N[C@@H](CC(N)=O)C(=O)N[C@H](C(=O)N[C@H](C(=O)N[C@@H](CCC(N)=O)C(=O)O)[C@@H](C)O)[C@@H](C)CC)C(C)C)[C@@H](C)CC [hGIP, reference compound]
Cynomolgous monkey GIPR
  EC50: 690 pM
Dog GIPR
  EC50: 700 pM

## Semaglutide [reference compound]
[1]
  glucose handling (OGTT) versus vehicle: did not exhibit any improvement over the vehicle
[5]
  effects on glucose tolerance: indistinguishable effects on glucose tolerance
